Assays:
[1] = Dissolution of drospirenone in methanol as granulation solvent; format: physicochemical
Method: About 16.00 ml of the dichloromethane/methanol solution at about a 6:1 ratio were placed in a stainless steel stirring apparatus. Next, about 0.0306 g of ethynylestradiol, non-micronized with a particle size no less than about 50 μm (addition of an excess of about 2% was foreseen to make up for losses during the process), were added under constant stirring. The mixture was shaken/stirred until completely dissolved. About 3.0600 g of drospirenone, non-micronized with a particle size no less than about 50 μm (addition of an excess of about 2% was foreseen to make up for losses during the process), were added under constant stirring until completely dissolved. Once dissolved, about 3.4000 g of polyvinylpyrrolidone K-30 were added with stirring until completely dissolved.
Only about 16 ml methanol was used in this example, which compares to substantially the same volume as the about 16 ml methylene chloride/methanol (about 6:1) used in example 1. […] Recall that in example 1 drospirenone was completely dissolved. Again, the process was conducted in accordance with example 1, including the step of “Granulation—Drying” where a planetary-type mixer was used and the mixture kneaded. The name of the final batch granulated: LPDIMet-16 ml.
In an extra experiment related to this Example 2, in the step “Dissolution of the active ingredients and binder” methanol was added until complete dissolution. […]

[2] = Dissolution profile of crystalline drospirenone tablets in acidic medium (USP 27 apparatus 2); format: physicochemical; conditions: HCl 0.1 N, regardless of the size of the particle, FIG. 16
Method: The dissolution profiles were obtained from tablets containing drospirenone in a crystalline state with different sized particles, using a dissolution apparatus designated in the U.S. Pharmacopoeia, Edition 27, apparatus 2, at 50 rpm and 900 ml of lauryl sulfate 0.07% in a strongly acidic medium, HCl 0.1 N, thermostatized at 37° C.

C[C@]12CCC(=O)C=C1[C@@H]1C[C@@H]1[C@H]1[C@@H]3[C@@H]4C[C@@H]4[C@@]4(CCC(=O)O4)[C@@]3(C)CC[C@@H]12 [drospirenone, 6β,7β,15β,16β-dimethylene-3-oxo-17α-pregn-4-ene-21,17-carbolactone]
amount of methanol required for complete dissolution ([1]; about 3.06 g drospirenone and about 0.0306 g ethynylestradiol): about 154.3 ml
dissolution of drospirenone in about 16 ml methanol ([1]; about 3.06 g drospirenone, methanol only): not enough for the total dissolution
stability of drospirenone in an acidic medium [2]: instability
